Results reported in article PMC7382296, “Discovery of potent thrombin inhibitors from a protease-focused DNA-encoded chemical library” (Proceedings of the National Academy of Sciences of the …, 2020).

Target: T1, thrombin (Homo sapiens, UniProt P00734)
T1 construct: gene F2
Assay: thrombin inhibition dose-response, apparent Ki
Assay type: biochemical

SMILES: CNC(=O)[C@@H]1CN(C(=O)[C@H](Cc2ccccc2CNC(=N)N)NC(=O)N(C)C2CCOc3ccccc32)C[C@H]1c1ccc(OC)cc1 (stereo partly shown) [compound 5]
- Ki: 1 nM
